The target in test [1] is T1, AKR1C3 (Homo sapiens (Human), UniProt P42330). As to the kind of experiment: AKR1C3 enzyme inhibition assay (Coumberone to Coumberol fluorescence). Format: biochemical. To be noted: recombinant human AKR1C3, 15 min pre-incubation, 90 min at 22° C.; repeated lines = two experimental determinations. As to the method:
The AKR1C3-inhibitory activity of the substances of the present invention was measured in the AKR1C3 assay described in the paragraphs below.
Essentially, the enzyme activity is measured by quantification of the Coumberol from Coumberone (Halim, M., Yee, D. J., and Sames, D., J. AM. CHEM. SOC. 130, 14123-14128 (2008) and Yee, D. J., Balsanek, V., Bauman, D. R., Penning, T. M., and Sames, D., Proc. Natl. Acad. Sci. USA 103, 13304-13309 (2006)). In this test, the increase of the highly fluorescent Coumberol by NADPH- (nicotinamide adenine dinucleotide phosphate)-dependent reduction of the non-fluorescent Coumberone by AKR1C3 can be determined.
The enzyme used was recombinant human AKR1C3 (Aldo-keto reductase family 1 member C3) (GenBank Accession No. NM_003739). This was expressed in E. coli as GST (glutathione S transferase) fusion protein and purified by glutathione Sepharose affinity chromatography. The GST was removed by digestion with thrombin and subsequent size exclusion chromatography (Dufort, I., Rheault, P., Huang, X F., Soucy, P., and Luu-The, V., Endocrinology 140, 568-574 (1999)).
For the assay, 50 nl of a 100-fold concentrated solution of the test substance in DMSO were pipetted into a black low-volume 384-well microtiter plate (Greiner Bio-One, Frickenhausen, Germany), 2.0 μl of a solution of AKR1C3 in assay buffer [50 mM potassium phosphate buffer pH 7, 1 mM DTT, 0.0022% (w/v) Pluronic F-127, 0.01% BSA (w/v) and protease inhibitor cocktail (Complete, EDTA-free Protease Inhibitor Cocktail from Roche)] were added and the mixture was incubated for 15 min to allow pre-binding of the substances to the enzyme prior to the enzyme reaction. The enzyme reaction was then started by addition of 3 μl of a solution of NADPH (16.7 μM→final concentration in 5 μl of assay volume is 10 μM) and Coumberone (0.5 μM→final concentration in 5 μl of assay volume is 0.3 μM) in assay buffer, and the resulting mixture was incubated at 22° C. for the reaction time of 90 min. The concentration of the AKR1C3 was adapted to the respective activity of the enzyme preparation and adjusted such that the assay was carried out in the linear range. Typical concentrations were in the region of 1 nM. The reaction was stopped by addition of 5 μl of a stop solution consisting of the inhibitor EM-1404 [F. Labrie et al. U.S. Pat. No. 6,541,463, 2003] (2 μM→final concentration in […] is 1 μM). The fluorescence of the Coumberole was then measured at 520 nm (excitation at 380 nm) using a suitable measuring instrument (Pherastar from BMG Labtechnologies). The intensity of the fluorescence was used as a measure of the amount of Coumberole formed and thus of the enzyme activity of AKR1C3. The data were normalized (enzyme reaction without inhibitor=0% inhibition; all other assay components, but no enzyme=100% inhibition).
As described, the pharmacological substances claimed were examined for their inhibitory activity on the AKR1C3 enzyme (see Table 1). The compounds claimed show a strong inhibition of AKR1C3 in vitro (IC50 values <200 nM) and in most cases even IC50 values <50 nM.

In test [2] the target is T1, AKR1C3. Kind of test: AKR1C3 inhibition in a cell-based system (HEK293 cells transfected with AKR1C3 expression plasmid, coumberol fluorescence). To be noted: HEK293 cells transfected with AKR1C3, incubation overnight; repeated lines = independent determinations; read-out: Cellular AKR1C3 inhibition IC50. The protocol:
The inhibition of AKR1C3 by the substances described in the present invention was measured in a cell-based assay using […] as substrate for the AKR1C3 (Halim, M., Yee, D. J., and Sames, D., J. AM. CHEM. SOC. 130, 14123-14128 (2008) and Yee, D. J., Balsanek, V., Bauman, D. R., Penning, T. M., and Sames, D., Proc. Natl. Acad. Sci. USA 103, 13304-13309 (2006)) (cf. Example 20).
The cell system used were HEK293 cells (ATCC, USA) (cell culture medium: DMEM, 1.5 g glucose, 10% FCS, PSG). The cells were transfected in an AKR1C3 expression plasmid (pCMV6-AC-AKR1C3, GenBank Accession No. NM_003739.4) overnight (X-tremeGENE HP, Roche). The next morning, the cells were sown in black 96well cell culture plates at a cell density of 40000 cells/well (Greiner Bio-One, Frickenhausen, Germany). After 7 h, the cells were incubated with the test substances (dissolved in 100× concentration in DMSO, final concentration between 10^−11M and 10^−5M) and […] (dissolved in cell culture medium, final concentration 5×10^−6M) overnight. The next morning, the fluorescence of coumberol was measured at 535 nm (excitation at 355 nm) using a suitable measuring instrument (Mithras, from Berthold). The fluorescence intensity was used as a measure of the amount of coumberol formed and thus of the enzyme activity of AKR1C3. The data were normalized (transfected cells without inhibitor, only DMSO=0% inhibition; transfected cells, 10 μM inhibitor EM-1404 [F. Labrie et al. U.S. Pat. No. 6,541,463, 2003]=100% inhibition), and the IC50 values were calculated using a 4-parameter fit.
In the cell-based assay described above, the pharmacological substances claimed were examined for their inhibitory activity on the AKR1C3 enzyme (see Table 2).

In test [3] the target is T1, AKR1C3. Kind of test: AKR1C3 binding by isothermal titration calorimetry. On the set-up: exothermal binding enthalpy: unit not given here. To be noted: ITC, 25° C., PBS buffer. The protocol:
Binding of Example compound 1 to the AKR1C3 enzyme was measured by isothermal titration calorimetry. The degree of affinity of a given compound can be stated using the dissociation constant (KD value). Human AKR1C3 enzyme was prepared as described in Example 20. For ITC experiments, human AKR1C3 protein was transferred by gel permeation into a PBS buffer consisting of 137 mM NaCl, 2.7 mM KCl, 10 mM Na2HPO4, 2 mM KH2PO4 and 1 mM tris(2-carboxyethyl)phosphine hydrochloride. The compounds were dissolved in 100% DMSO at a concentration of 10 mM and then diluted with PBS buffer. Isothermal titration calorimetry experiments (ITC experiments) were carried out using an ITC200 titration calorimeter (GE Healthcare, Northampton, Mass., USA) at a temperature of 25° C. The change in enthalpy resulting from the injection of the protein was determined by integration of the calorimetric signal. The data were analyzed with Origin 7.0 (GE Healthcare, Northampton, Mass., USA). Heat of dilution values were determined using the last injection of the titration in question and subtracted prior to curve fitting. The protein concentration in the injection syringe was in the range from 80 to 120 μM, and the concentration of the compound to be measured was in the range from 5 to 20 μM.

Several values for one entry are separate records, joined by “and”; a condition that tells them apart may be missing. Equal values may be shown once.

T1 sequence (P42330 whole entry): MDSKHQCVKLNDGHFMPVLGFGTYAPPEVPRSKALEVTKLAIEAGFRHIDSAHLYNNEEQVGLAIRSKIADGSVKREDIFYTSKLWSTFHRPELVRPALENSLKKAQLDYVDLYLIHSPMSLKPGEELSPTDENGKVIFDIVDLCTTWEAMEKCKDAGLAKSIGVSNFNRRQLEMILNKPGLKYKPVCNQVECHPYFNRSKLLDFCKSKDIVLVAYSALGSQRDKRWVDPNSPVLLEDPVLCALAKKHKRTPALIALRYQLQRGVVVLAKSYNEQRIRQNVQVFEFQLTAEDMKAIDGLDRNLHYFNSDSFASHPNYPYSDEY

`C[C@]12CC[C@@H]3c4ccc(CCC(=O)O)cc4CC[C@H]3[C@@H]1CC=C2c1cncc(F)c1` [Example 1, 3-[17-(5-Fluoropyridin-3-yl)estra-1,3,5(10),16-tetraen-3-yl]propanoic acid]: the IC50 at AKR1C3 [1] was 8 nM and 7.6 nM; on AKR1C3 [2], 40 nM and 52 nM and 157 nM. At AKR1C3 [3], this compound yielded an exothermal binding enthalpy of −1500. The Kd on AKR1C3 [3] (read-out: KD value (dissociation constant)) stood at 230 nM.

(Values after patent US9512169B2, “3-substituted estra-1,3,5(10),16-tetraene derivatives, methods for the production thereof, pharmaceutical preparations containing same, and use thereof for the production of medicaments” (BAYER PHARMA AKTIENGESELLSCHAFT, priority 2012, dated 2016).)
